Source: PMC12298827, “Subchronic Toxicities of Four Per- and Polyfluoroalkyl Substances (PFASs) by Oral Exposure in Sprague–Dawley Rats” (Toxics, 2025)

System: male and female SD rats
Test: 14-day dose-range-finding oral gavage study
Assay type: in vivo, rat
Details: both sexes, all doses
Experimental: Dose-range-finding (14-day) studies were conducted using male and female rats to establish dose levels for 90-day studies and identify potential target organ toxicities. Male and female rats (n = 5 sex/group, a control and three dose groups, corn oil vehicle dose volume of 5 mL/kg) were administered PFASs by oral gavage daily for 14 days and euthanized on study day (SD) 15. The dose levels for PFHI, CTFPA, and MHFPK were 0, 30, 100, and 300 mg/kg-day. The dose levels for PFNAC were 0, 10, 30, and 100 mg/kg-day. The in vivo data collected included BW, BWCs, FC, cage-side observations, and physical exams. Gross necropsies, relative and absolute organ weights, and clinical chemistry data were collected for all the groups. Macroscopic and microscopic pathology examinations were conducted for the control and high-dose groups initially; the other groups were examined if justified by experimental findings. Plasma samples were analyzed ~2 h post dosing on day 1 and at day 15 for the parent PFAS chemical.
Neurotoxicity was evaluated using the functional observational battery (FOB) and measuring locomotor activity (LMA) 2–4 h post dosing on SDs 78–80 and 80–84, respectively. For both the 14- and 90-day studies, an ophthalmologic examination was conducted prior to randomization and near the end of the study, using indirect ophthalmoscopy and slit–lamp biomicroscopy (as needed) after the administration of a mydriatic solution.
Hematology, biochemistry, and coagulation endpoints were measured at the termination of the study. A Siemens Advia 2120i hematology analyzer (Siemens Healthineers, Erlangen, Germany) was used to measure (or calculate) the parameters related to the complete blood count, leukocyte differential count, and reticulocyte count. The hematology parameters are listed and described in Table 2. The prothrombin time […] and activated partial thromboplastin time (APTT) were measured using an Instrumentation Laboratory (Bedford, MA, USA) ACL Elite Pro coagulation analyzer (laser–nephelometric centrifugal method).
At necropsy, the rats were visually examined for external abnormalities and organ weights (absolute and relative to the BW and brain weight), which were recorded (paired organs weighed together). The tissues were preserved in 10% neutral buffered formalin (NBF), except for the ocular tissues, testes, and epididymides, which were preserved in modified Davidson’s fixative and later transferred to 10% NBF. Bone marrow smears were prepared from the femurs, and the slides were air-dried, fixed in methanol, stained, and stored at room temperature for possible future evaluation. The preserved tissues were embedded in paraffin, sectioned, stained with hematoxylin and eosin, and examined by a board-certified veterinary pathologist.

| Compound | Bodyweight and bodyweight gain | Clinical chemistry | Clinical observations | Coagulation endpoints | Feed consumption | Gross lesions | Hematology | Histopathology | Morbidity and mortality | Ophthalmology | Organ weight changes |
| --- | --- | --- | --- | --- | --- | --- | --- | --- | --- | --- | --- |
| C=CC(=O)OCC(F)(F)C(F)(F)C(F)(F)C(F)(F)C(F)(F)C(F)(F)C(F)(F)C(F)F [PFNAC, 1H,1H,9H-Perfluorononyl acrylate] | No changes | From mild to moderate decreases in mean cholesterol levels in males at all the dose levels and in females at 30 and 100 mg/kg-day, with from mild to moderate increases in triglycerides in both sexes at 100 mg/kg-day and in females at 30 mg/kg-day | None | No effects | No effects | None | No effects considered as chemical related | From minimal to moderate liver hypertrophy in males only in 2/5, 3/5, and 4/4 at doses of 10, 30, and 100 mg/kg-day, respectively | None | No ocular lesions | Dose-proportional increases in absolute and relative liver weights in all exposed males and females |
| CC(=O)C(F)(F)C(F)(F)C(F)(F)F [MHFPK, Methyl heptafluoropropyl ketone] | No changes | Minimal increases in BUN and creatinine at 300 mg/kg-day for males; increased creatinine in females at ≥100 mg/kg-day | None | No effects | No effects | None | No effects considered as chemical related | No test-substance-related changes | None | No ocular lesions | No test-substance-related changes |
| FC(F)(F)C(F)(F)C(F)(F)C(F)(F)CCI [PFHI, 1H,1H,2H,2H-Perfluorohexyl iodide] | No changes | Mild increases in cholesterol levels in both sexes at 300 mg/kg-day and mild increases in glucose in males only at ≥100 mg/kg-day; from minimal to moderate increases in phosphorus in both sexes in all the dose groups | None | No effects | Females: dose-dependent increase, not correlated with bodyweight changes; Males: no effects | None | Decreased red cell mass at 300 mg/kg-day in females and all the dose levels in males; minimal increases in absolute reticulocyte concentrations and from minimal to mild increases in MPV in both sexes at all the dose levels | Mild liver hypertrophy in 4/5 males at 300 mg/kg-day and in 1/5 at 100 mg/kg-day; none in females | None | No ocular lesions | Increases in absolute and relative liver weights in males at 300 mg/kg-day and increases in liver weight/bodyweight ratio at ≥100 mg/kg-day; no changes in females |
| O=C(O)C(F)(Cl)C(F)(F)F (centres unmarked) [CTFPA, 2-Chloro-2,3,3,3-tetrafluoropropanoic acid] | No changes | Females: mild increases in albumin, A/G ratio and mild sporadic decreases in globulin and minimal increases in the total protein; males: minimal increases in calcium and from minimal to mild increases in BUN at all the dose levels. At 300 mg/kg-day, mild increases in ALPi | None | No effects | No effects | None | Mild increases in MPV in males at all the doses, not seen in females | From minimal to moderate diffuse hepatocellular hypertrophy seen in the livers of males at ≥30 mg/kg-day (5/5 in all the groups, with severity increasing with dose) and females at ≥100 mg/kg-day (5/5 with, severity increasing with dose) | None | No ocular lesions | Females: liver at >100 mg/kg-day; males: liver, dose-dependent pattern in all the dose groups |
